Values quoted from earlier work in patent US20240000752A1, “MICROSUSPENSION AGAINST PARASITES AND METHOD FOR OBTAINING SAME” (Ipanema Industria de Productos Veterinarios Ltda, priority 2020, published 2024).

Tests used:
[1] = system: Ostertagia ostertagi Cooperia pectinata, Cooperia punctata, Trichostrongylus axei, Trichostrongylus colubriformis, Oesophagostomum radiatum, Haemonchus placei …

| Structure (SMILES) | efficacy against endoparasites and ectoparasites [1] | pka | solubility in water |
| --- | --- | --- | --- |
| CO[C@H]1C[C@H](O[C@H]2[C@H](C)O[C@@H](O[C@@H]3/C(C)=C/C[C@@H]4C[C@@H](C[C@]5(C=C[C@H](C)[C@@H](C6CCCCC6)O5)O4)OC(=O)[C@@H]4C=C(C)[C@@H](O)[C@H]5OC/C(=C\C=C\[C@@H]3C)[C@]54O)C[C@@H]2OC)O[C@@H](C)[C@@H]1O [doramectin] | effective | – | – |
| CCC[S+]([O-])c1ccc2[nH]c(NC(=O)OC)nc2c1 (stereo not drawn) [albendazole sulfoxide] | – | 7.8 | low solubility in water |
